# According to ChEMBL document CHEMBL1125803 (J Med Chem, 1991):
# Numbered stars: 1 amine (or outer) side, 2 acyl side, 3 side chain; on linkers, the order of the positions; unused ones are H or OH. Square brackets hold non-standard residues; d marks the D form. Peptide text beside a SMILES is read from it. X1 = O=C([C@@H]1CCCN1CC(O)[C@H](Cc1ccccc1)N[*:1])[*:2]
# Legend:
# [1] = target: T1, Human immunodeficiency virus type 1 protease (Human immunodeficiency virus 1, UniProt Q72874); experiment: (§1) Binding activity against HIV-1 Protease
# [2] = target: T1, Human immunodeficiency virus type 1 protease; experiment: as §1; remark: listed apart in the source
Structure (SMILES),IC50 [1] [nM],IC50 [2] [nM]
CC[C@H](C)[C@H](NC(=O)[C@@H]1CCCN1C[C@H](O)[C@H](Cc1ccccc1)NC(=O)[C@H](CC(N)=O)NC(=O)OCc1ccccc1)C(=O)N[C@H](C(=O)OC)C(C)C,13,13
CC(C)(C)OC(=O)[C@@H]1CCCN1C[C@H](O)[C@H](Cc1ccccc1)NC(=O)[C@H](CC(N)=O)NC(=O)OCc1ccccc1,300,300
CC(C)(C)NC(=O)C1CC2CCCCC2CN1C[C@H](O)[C@H](Cc1ccccc1)NC(=O)[C@H](CC(N)=O)NC(=O)OCc1ccccc1 (stereo partly drawn),> 100,> 100
CC(C)(C)NC(=O)C1CC2CCCCC2CN1C[C@@H](O)[C@H](Cc1ccccc1)NC(=O)[C@H](CC(N)=O)NC(=O)OCc1ccccc1 (stereo partly drawn),< 2.7,< 2.7
CC[C@H](C)[C@H](NC(=O)C1CC2CCCCC2CN1C[C@@H](O)[C@H](Cc1ccccc1)NC(=O)[C@H](CC(N)=O)NC(=O)OCc1ccccc1)C(=O)N[C@H](C(=O)OC)C(C)C (stereo partly drawn),> 100,> 100
CC(C)(C)OC(=O)[C@@H]1CCCN1C[C@@H](O)[C@H](Cc1ccccc1)NC(=O)[C@H](CC(N)=O)NC(=O)OCc1ccccc1,140,140
CC[C@H](C)[C@H](NC(=O)[C@@H]1CCCN1CC(O)[C@H](Cc1ccccc1)NC(=O)[C@H](CC(N)=O)NC(=O)[C@H](CC(C)C)NC(=O)[C@H](CO)NC(C)=O)C(=O)OC (stereo partly drawn) (Ac-SLN[X1]I-OMe),420,420
CC[C@H](C)[C@H](NC(=O)C1CC2CCCCC2CN1C[C@H](O)[C@H](Cc1ccccc1)NC(=O)[C@H](CC(N)=O)NC(=O)OCc1ccccc1)C(=O)N[C@H](C(=O)OC)C(C)C (stereo partly drawn),> 100,> 100
CC[C@H](C)[C@H](NC(=O)[C@@H]1CCCN1C[C@@H](O)[C@H](Cc1ccccc1)NC(=O)[C@H](CC(N)=O)NC(=O)OCc1ccccc1)C(=O)N[C@H](C(=O)OC)C(C)C,> 100,> 100
